Measured values reported in patent publication US20130217721A1, “COMPOSITIONS AND METHODS FOR DETECTION AND TREATMENT OF B-RAF INHIBITOR-RESISTANT MELANOMAS” (The Regents of the University of California, priority 2010, published 2013).
Read-outs that look alike come from different tables or passages of the source.

Tests used:
[1] = system: M229 R sub-lines (M229 R5); experiment: Cell survival / proliferation assay (72 h); format: cell-based, human; settings: M229 R sub-lines
Protocol: (§1) Cells were maintained in Dulbecco's modified Eagle medium (DMEM) with 10 or 20% fetal bovine serum and glutamine. shRNAs were sub-cloned into the lentiviral vector pLL3.7 and infections carried out with protamine sulphate. Stocks of PLX4032 (Plexxikon) and AZD6244 (commercially available) were made in DMSO. Cells were quantified using CellTiter-GLO Luminescence (Promega).
(§2) Cell proliferation experiments were performed in a 96-well format (five replicates), and baseline quantification performed at 24 h after cell seeding along with initiation of drug treatments (72 h). Stocks and dilutions of PLX4032 (Plexxikon), AZD6244 (Selleck Chemicals) and U0126 (Promega) were made in DMSO. siRNA pool (Dharmacon) transfections were carried out in 384-well format. TransIT transfection reagent (Mirus) was added to each well and incubated at 37° C. for 20 min. Subsequently, cells were reverse transfected, and the mixture was incubated for 51-61 h at 37° C. Cells were quantified using CellTiter 96 Aqueous One Solution (Promega) or CellTiter-GLO Luminescence (Promega) following the manufacturer's recommendations.

[2] = system: M238 R sub-lines (M238 R1); experiment: Cell survival / proliferation assay (72 h); format: cell-based, human; settings: M238 R sub-lines
Protocol: as §1, §2

[3] = system: Pt48 R short-term culture; experiment: Cell survival / proliferation assay (72 h); format: cell-based, human
Protocol: as §1, §2

[4] = system: Pt55 R short-term culture; experiment: Cell survival / proliferation assay (72 h); format: cell-based, human
Protocol: as §1, §2

BRAF(V600E/R509H) = BRAF(V600E/R509H) (Homo sapiens, UniProt P15056, R509H/V600E); experiment: ERK signaling in 293H cells expressing BRAF(V600E/R509H); format: cell-based; settings: 2 μM PLX4032 for 1 hour
Source text: (§3) FIGS. 6A-6E. […] FIG. 6A. PCR analysis of BRAF in cDNA from parental (P) and C3 cells. Primers were designed at the N-terminus and C-terminus of BRAF. […] Abbreviations: CR1: Conserved Region 1, CR2: Conserved Region 2, CR3: Conserved Region 3, RBD: RAS-binding domain, CRD: Cystine-Rich Domain, AS: Activation Segment, KD: Kinase Domain. FIG. 6B. Full length wild-type BRAF and the 1.7 kb/61 kd splice variant of BRAF(V600E) were cloned into a pcDNA3.1 vector with a FLAG tag at the C-terminus and expressed in 293H cells. The effect of PLX4032 (2 μM for 1 hour) on ERK signaling in the presence of p61 BRAF(V600E) was analyzed by western blot for pMEK and pERK. FIG. 6C. To compare levels of dimerization, 293H cells co-expressing FLAG tagged and V5-tagged p61 BRAF(V600E), full length BRAF(V600E) and the corresponding dimerization-deficient mutants p61 BRAF(V600E/R509H) and BRAF(V600E/R509H) were lysed followed by immunoprecipitation with FLAG antibody. Western blots with V5 or FLAG antibodies were performed as indicated. FIG. 6D. Comparison of MEK/ERK activation and sensitivity of ERK signaling to PLX4032 (2 μM for 1 hour) in 293H cells expressing either Flag-tagged BRAF(V600E) or the dimerization mutant Flag-tagged BRAF(V600E/R509H). FIG. 6E. […]

p61 BRAF(V600E/R509H) = p61 BRAF(V600E/R509H) (Homo sapiens, UniProt P15056, DEL169-380/R509H/V600E); experiment: ERK signaling in 293H cells expressing p61 BRAF(V600E/R509H); format: cell-based; settings: 2 μM PLX4032 for 1 hour
Source text: as §3

M395 R = experiment: Cell survival assay (72 h); format: cell-based, human
Source text: (§4) Cell culture, infections and drug treatments. Cells were maintained in DMEM with 10 or 20% fetal bovine serum and glutamine. shRNAs for B-RAF and C-RAF were sub-cloned into the lentiviral vector pLL3.7; pBabe B-RAF (V600E) was purchase (plasmid 17544, Addgene); viral supernatants generated by co-transfection with three packaging plasm ids into HEK293T cells; and infections carried out with protamine sulfate. Stocks and dilutions of PLX4032 (Plexxikon, Berkeley, Calif.) and AZD6244 (commercially available) were made in DMSO. Cells were quantified using CellTiter-GLO Luminescence (Promega) or crystal violet staining followed by NIH Image J quantification.

pERK levels in M395 R = experiment: Western blot of pERK after acute vemurafenib titration; format: cell-based, human; settings: vemurafenib titration 1 h after a 24 h drug withdrawal
[5] = system: M395 P over-expressing V600EB-RAF; experiment: Cell survival assay (72 h) with V600EB-RAF over-expression; format: cell-based, human
Protocol: FIGS. 9A-9C. ^V600EB-RAF levels modulate melanoma sensitivity to vemurafenib. […] Dashed line, 50% inhibition. […] FIG. 9C, Increasing (in M395 P) or decreasing (in M395 R) BRAF^V600E levels decreased or increased pERK sensitivity to PLX4032 (0, 0.1, 1, 10 μM) treatments for 1 h, respectively.
as §4

[6] = system: MAPK signalling (p-MEK1/2 and p-ERK1/2); settings: PLX4032 0, 0.01, 0.1, 1 and 10 μM
Protocol: FIG. 1A, Parental and PLX4032-resistant sub-lines were treated with increasing PLX4032 concentration (0, 0.01, 0.1, 1 and 10 μM), and the effects on MAPK signalling were determined by immunoblotting for p-MEK1/2 and p-ERK1/2 levels. Total MEK1/2, ERK1/2 and tubulin levels, loading controls.
Western blots were probed with antibodies against p-MEK1/2 (S217/221), MEK1/2, p-ERK1/2 (T202N204), ERK1/2, PDGFRβ, and EGFR (Cell Signaling Technologies), and N-RAS (Santa Cruz Biotechnology), pan-RAS (Thermo Scientific) and tubulin (Sigma). p-RTK arrays were performed according to the manufacturer's recommendations (Human Phospho-RTK Array Kit, R&D Systems).
Cell lysates for western blotting were made in RIPA (Sigma) with protease inhibitor cocktail (Roche) and phosphatase inhibitor cocktails I and II (Santa Cruz Biotechnology). Western blots were probed with antibodies against p-MEK1/2 (S217/221), total MEK1/2, p-ERK1/2 (T202/Y204), total ERK1/2, PDGFRβ, and EGFR (all from Cell Signaling Technologies), B-RAF and N-RAS (Santa Cruz Biotechnology), pan-RAS (Thermo Scientific) and tubulin (Sigma). p-RTK arrays were performed according to the manufacturer's recommendations (Human Phospho-RTK Array Kit, R&D Systems).

[7] = system: V600EB-RAF-positive melanomas; settings: patients with V600EB-RAF-positive melanomas; cited from earlier work
[8] = Homo sapiens, not reached up to 10 μM, read-out: GI50, concentration of drug that inhibits growth of cells by 50%

p61 BRAF(V600E/R509H), sequence (P15056 with tags, fused parts or gaps DEL169-380/R509H/V600E): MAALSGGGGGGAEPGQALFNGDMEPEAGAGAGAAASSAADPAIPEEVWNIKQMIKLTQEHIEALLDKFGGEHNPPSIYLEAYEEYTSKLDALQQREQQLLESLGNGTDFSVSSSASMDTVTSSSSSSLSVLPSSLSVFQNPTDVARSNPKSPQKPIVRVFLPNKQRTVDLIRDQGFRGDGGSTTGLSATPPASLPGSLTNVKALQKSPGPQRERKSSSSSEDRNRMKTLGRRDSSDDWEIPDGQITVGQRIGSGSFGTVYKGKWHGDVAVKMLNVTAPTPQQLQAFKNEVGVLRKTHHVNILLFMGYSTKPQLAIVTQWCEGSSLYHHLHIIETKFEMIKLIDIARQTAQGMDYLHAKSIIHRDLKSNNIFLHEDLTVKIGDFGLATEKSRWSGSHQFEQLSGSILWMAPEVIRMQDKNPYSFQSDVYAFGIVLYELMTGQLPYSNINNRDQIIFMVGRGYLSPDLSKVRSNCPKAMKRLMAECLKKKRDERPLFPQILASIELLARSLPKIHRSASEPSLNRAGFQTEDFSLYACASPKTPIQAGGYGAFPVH
BRAF(V600E/R509H), sequence (P15056 whole entry R509H/V600E, the tested form may be a part, canonical isoform): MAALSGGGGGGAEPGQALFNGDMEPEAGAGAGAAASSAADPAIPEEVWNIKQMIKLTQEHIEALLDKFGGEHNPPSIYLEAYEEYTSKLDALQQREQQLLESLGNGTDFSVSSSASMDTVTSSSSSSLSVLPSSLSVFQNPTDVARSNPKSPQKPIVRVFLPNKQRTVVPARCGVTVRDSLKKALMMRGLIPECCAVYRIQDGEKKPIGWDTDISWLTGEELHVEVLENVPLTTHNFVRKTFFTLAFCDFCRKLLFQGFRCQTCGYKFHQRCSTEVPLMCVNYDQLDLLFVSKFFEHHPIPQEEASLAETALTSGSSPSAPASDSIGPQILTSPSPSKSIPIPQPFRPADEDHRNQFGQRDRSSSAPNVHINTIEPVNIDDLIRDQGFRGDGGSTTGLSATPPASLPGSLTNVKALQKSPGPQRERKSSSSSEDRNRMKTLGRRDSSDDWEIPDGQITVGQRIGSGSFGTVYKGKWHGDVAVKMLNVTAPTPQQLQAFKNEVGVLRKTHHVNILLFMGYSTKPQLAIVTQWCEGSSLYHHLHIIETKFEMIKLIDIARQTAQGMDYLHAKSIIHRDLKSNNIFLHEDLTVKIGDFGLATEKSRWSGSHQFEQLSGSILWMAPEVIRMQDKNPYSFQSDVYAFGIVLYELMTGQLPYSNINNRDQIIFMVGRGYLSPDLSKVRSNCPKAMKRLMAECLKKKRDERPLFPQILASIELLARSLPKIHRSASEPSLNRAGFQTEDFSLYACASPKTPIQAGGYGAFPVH

CCCS(=O)(=O)Nc1ccc(F)c(C(=O)c2c[nH]c3ncc(-c4ccc(Cl)cc4)cc23)c1F [PLX4032]
GI50 [1, 8]: > 10 µM | growth at low PLX4032 concentrations ([1]; in contrast to parental cells): paradoxically enhanced growth | GI50 [2, 8]: > 10 µM | growth at low PLX4032 concentrations ([2]; in contrast to parental cells): paradoxically enhanced growth | growth resistance to B-RAF inhibitor [3]: resistance | growth resistance to B-RAF inhibitor [4]: resistance | sensitivity of ERK signaling (BRAF(V600E/R509H)): remained sensitive | ERK signaling (p61 BRAF(V600E/R509H)): inhibited | growth sensitivity to vemurafenib treatment (M395 R; M395 R (amplified V600EB-RAF)): highly resistant | drug sensitivity at high vemurafenib dosing (M395 R; vemurafenib from 1 to 50 µM, 72 h, versus M249 R4): highly sensitive | pERK levels, sensitivity to acute V600EB-RAF inhibition (pERK levels in M395 R): highly resistant | vemurafenib resistance conferred by V600EB-RAF over-expression [5]: highly saturable by micromolar concentrations | PLX4032-induced decreases in p-MEK1/2 and p-ERK1/2 ([6]; M229 R5): similarly sensitive | PLX4032-induced decreases in p-MEK1/2 and p-ERK1/2 ([6]; M238 R1): similarly sensitive | PLX4032-induced MEK/ERK inhibition ([6]; M249 R4): strong resistance | p-MEK1/2 and p-ERK1/2 levels ([6]; all parental cells (M229, M238, M249)): dose-dependent decreases | anti-tumor response rate [7]: 80%
